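Briefly, cells in 96-well plates were exposed to five compound concentrations for 48 h, and endpoints were estimated by linear interpolation. TGI marks complete inhibition of growth.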 A value given as a limit tells only on which side of the number the result lay.

Consider 18 compounds from PubChem BioAssay (NCI).

What all share (assay): growth of human tumour cells (NCI), 48 h
In test [1] the test system is DU-145 prostate.
For test [2], the system named is PC-3 prostate.
In test [3] the test system is NCI-H460 lung.
Test [4] relates to MCF7 breast.
For test [5], the system named is MDA-MB-435.
Test [6] concerns U251 CNS.
Test [7] concerns SN12C renal.
Test [8] has as its system HCC-2998 colon.
In test [9] the test system is SNB-19 CNS.
The subject of test [10] is M14 melanoma.
The test system of test [11] is RXF 393 renal.
Test [12] has as its system MDA-MB-231 breast.
Test [13] deals with OVCAR-5 ovarian.
The test system of test [14] is 786-0 renal.
Test [15] relates to HOP-62 NSCLC.
Test [16] deals with HCT-116 colon.
The test system of test [17] is K-562 leukemia.
The subject of test [18] is RPMI-8226 leukemia.
Test [19] concerns COLO 205 colon.

In the case of `Cc1[nH]c(=O)c2oc3cc4ccccc4cc3c2c1C(=O)O`, the TGI in [1], in test [2], in test [3], in [4], in test [5] and in test [6] was above 10 µM throughout. Moreover, the TGI in test [7], in [8], in test [9], in test [10], in test [11] and in test [12] was above 10 µM each time. Further, the TGI in [13] and in [14] was above 10 µM throughout.

In the case of `COC(=O)/C(=N\N)C(C(=O)C(=O)Nc1cc(Cl)ccc1Cl)c1nc2ccc([N+](=O)[O-])cc2[nH]c1=O` (centres undefined), the TGI in test [15], in test [2], in [16], in test [3], in test [4] and in test [5] was above 100 µM throughout. Besides, the TGI in test [6], in [7], in test [8], in test [10], in test [11] and in test [12] was above 100 µM each time. Moreover, the TGI in test [17], in [13], in test [18] and in test [14] was above 100 µM in each case.

On to `Cc1cc2nnn(C3CCCCO3)c2cc1C` (centres undefined), for which the TGI in [15], in [19], in test [1], in [2], in [16] and in test [3] was above 100 µM in each case. The TGI in test [4], in test [5], in [6], in [7], in test [8] and in test [9] was above 100 µM in each case. Moreover, the TGI in test [10], in [11], in test [12], in [17], in test [13] and in [14] was above 100 µM throughout.

Consider `C/C=C1/C=CC2c3[nH]c4ccccc4c3CCN2C1` (centres undefined), for which the TGI in [15], in test [19], in [16], in test [3], in test [6] and in [7] was above 400 µM in each case. Besides, the TGI in [8], in test [9], in test [11], in test [17], in test [18] and in test [14] was above 400 µM each time.

Regarding `COC(=O)N/N=c1\cc(C(=O)Nc2ccc(C)c(C)c2)oc2cc(O)ccc12`, the TGI in [15], in [19], in test [16], in [3], in test [6] and in [7] was above 100 µM in each case. The TGI in [8], in test [9], in test [10], in [11], in test [17] and in test [13] was above 100 µM in each case. The TGI in test [14] was above 100 µM.

With `Cc1cc(C=O)c2c(=O)c3c(O)ccc(/C=C/C(C)C)c3oc2c1`, the TGI in test [15] is above 100 µM; in test [19], above 100 µM; in test [16], 48.1 µM; in test [3] it was above 100 µM; in test [6] it was above 100 µM; in [8], above 100 µM. For the same compound, the TGI in test [9] was above 100 µM; in test [10], above 100 µM; in test [17], above 100 µM; in [13], above 100 µM; in test [18], 58.8 µM; in test [14], above 100 µM.

Regarding `CCOc1ccc(OP2(=O)NC(=O)C=C(C)N2)cc1` (centres undefined), the TGI in test [15], in test [19], in test [16], in test [3], in test [6] and in test [7] was above 100 µM throughout. The TGI in test [9], in test [10], in test [11], in test [17], in test [13] and in [18] was above 100 µM each time. The compound further registered a TGI in test [14] above 100 µM.

As for `O=C(NC1CCCCC1)c1n[nH]nc1Cl`, the TGI in test [15], in test [19], in test [1], in test [2], in [16] and in [3] was above 100 µM in each case. Also, the TGI in [4], in test [5], in test [6], in test [7], in [8] and in test [9] was above 100 µM in each case. Moreover, the TGI in test [10], in test [11], in test [12], in test [17], in test [13] and in test [14] was above 100 µM in each case.

As for `O=C(c1c(F)c(F)c(F)c(F)c1F)n1c(=S)n(C(=O)c2c(F)c(F)c(F)c(F)c2F)c2ccccc21`, the TGI in test [15], in [19], in test [1], in test [2], in test [16] and in test [3] was above 100 µM in each case. Further, the TGI in test [4], in test [6], in [7], in test [8], in test [9] and in test [10] was above 100 µM throughout. The TGI in test [12] is above 100 µM; in test [17], 51.5 µM; in test [13], above 100 µM; in test [18], above 100 µM; in test [14], above 100 µM.

Regarding `CN(CC(=O)Nc1ccccc1C(=O)O)c1ccccc1`, the TGI in test [15], in [1], in [2], in test [16], in [3] and in test [4] was above 100 µM in each case. Also, the TGI in [6], in test [7], in [8], in test [9], in [10] and in test [11] was above 100 µM in each case. The TGI in test [12], in test [17], in [13], in test [18] and in test [14] was above 100 µM in each case.

As to `CN(/N=C/c1ccccn1)C1=NCCN1`, the TGI in test [15], in [19], in test [2], in test [16], in [3] and in test [4] was above 100 µM in each case. In addition, the TGI in test [5], in test [6], in test [8], in test [9], in test [10] and in test [11] was above 100 µM throughout. Moreover, the TGI in test [12], in test [17], in test [13], in test [18] and in test [14] was above 100 µM throughout.

Take `CN(Cc1cccc2ccsc12)/N=C\c1ccc(Cl)cc1`: the TGI in test [15], in test [19], in test [1], in test [2], in test [16] and in test [3] was above 100 µM each time. The TGI in test [4], in test [5], in test [6], in [7], in test [8] and in test [9] was above 100 µM throughout. In addition, the TGI in test [10], in test [11], in test [12], in test [17], in [13] and in test [14] was above 100 µM each time.

Take `CCN(CC)c1ccc(Cl)c2c1C(O)(C(C)C)C2(C)C` (centres undefined): the TGI in [15] was found to be 39 µM; in test [19], 28.9 µM; in test [16] it was 27 µM; in test [3], 33.9 µM; in test [6], 30.5 µM; in test [7] it was 30.5 µM. Moreover, the TGI in [8] was 30.3 µM; in test [9], 28.7 µM; in test [10] it was 30.5 µM; in test [11] it was 29.7 µM; in test [17], 43.9 µM; in test [13], 30.6 µM. Besides, the TGI was 31.2 µM in [18] and 27.7 µM in test [14].

`CCCCCCCCCCCCCCCCOP(=O)([O-])OCC[N+](C)(C)C1CC(C)(C)N(O)C(C)(C)C1`: the TGI in test [15], in [19], in test [1], in test [2], in [16] and in test [3] was above 100 µM in each case. For the same compound, the TGI in test [4], in test [5], in [6], in test [8], in test [9] and in test [10] was above 100 µM in each case. For the same compound, the TGI in test [11], in [12], in test [13] and in test [14] was above 100 µM each time.

As for `COc1ccc(OC)c(/C=C2/C(=O)N=C(NC(C)=O)N2C)c1`, the TGI in test [15], in test [19], in [1], in test [2], in test [16] and in test [3] was above 100 µM each time. For the same compound, the TGI in [4], in test [5], in [6], in [7], in test [8] and in test [9] was above 100 µM in each case. Besides, the TGI in [10], in test [11], in test [12], in [13] and in [14] was above 100 µM throughout.

For `CC(=O)Nc1nc2c(=O)c3ccccc3sc2s1`, the TGI in [15], in test [19], in [1], in test [2], in test [16] and in test [3] was above 100 µM throughout. Besides, the TGI in test [4], in test [7], in test [9], in test [10], in test [11] and in [12] was above 100 µM each time. For the same compound, the TGI in [17], in test [13], in test [18] and in test [14] was above 100 µM in each case.

With `CCN(CC)/[N+]([O-])=N/OS(=O)(=O)N(C)C`, the TGI in test [15], in test [19], in [1], in test [16], in test [3] and in [4] was above 100 µM each time. The TGI in test [5], in test [6], in test [7], in test [8], in test [9] and in [10] was above 100 µM in each case. The TGI in test [11], in test [12], in [17], in test [13], in test [18] and in test [14] was above 100 µM each time.

Consider `O=C(O)c1ccccc1/C=C1\Cc2cc3c(cc2C1=O)CCC3`, for which the TGI in test [15] is 65.2 µM; in test [19] it was 44.8 µM; in test [1], above 100 µM; in [16], 76.6 µM; in [3], 81.9 µM; in test [4], 68.5 µM. The TGI is 51.5 µM in [5]; 94.3 µM in test [6]; 56.8 µM in test [7]; 68.3 µM in test [8]; above 100 µM in [9]; 53.7 µM in test [10]. Further, the TGI in [11] was 56.5 µM; in [12], 51.2 µM; in [17] it was 51.7 µM; in test [13], above 100 µM; in [18], 55.2 µM; in [14], 70.5 µM.
